Measurements: patent US20070178577A1, “Method for effecting the anaerobic biological decomposition of organsiloxanes” (WACKER CHEMIE AG, priority 2004, published 2007)

Tests used:
Sewage sludge = assay: Anaerobic decomposition of octamethylcyclosiloxane (D4) by sewage sludge with nitrate as electron acceptor, gas chromatography; conditions: in 11 days
Experimental: The experiment was carried out in accordance with Example 1. In each case five flasks were made up with sewage sludge and five flasks with inactivated sewage sludge. As carbon source, octamethylcyclosiloxane (D4) was added to the medium. The siloxane is immiscible with water and first forms an oily film on the culture surface. With advancing culture time, the siloxane oil is emulsified in the culture. Relatively large cell aggregates form. Culture proceeds in accordance with Example 1 in the mineral medium specified there (SM1) comprising 5 g/l of KNO3 as electron acceptor. As sole carbon source, octamethylcyclosiloxane (D4) was added to the batches (1 ml per 100 ml of medium). After differing incubation times, the D4 content of the batches was determined. The entire batch was extracted 3 times with 50 ml of pentane, and to facilitate phase separation, it was centrifuged each time. The pentane phases were combined and D4 determined quantitatively directly by means of gas chromatography (Hewlett Packard instrument hp5890_li). The gas-chromatographic determination proceeded using a 30 m capillary (Hewlett Packard HP-1 No. 59026323) using nitrogen as carrier gas. Temperature program: 50° C. (5 min)−270° C. at 20° C./min. Detection was by means of FID at 300° C. The resultant signal peaks were quantified using corresponding standard solutions.

[1] = tested on: Sewage sludge from a municipal sewage treatment plant; assay: Anaerobic decomposition of dimethylsilanediol (DMSD) by sewage sludge with nitrate as electron acceptor, 1H-NMR; conditions: in 11 days
Description: Sewage sludge from a municipal sewage treatment plant was taken off from running operations under oxygen-free conditions (N2-comprising sample vessels). To separate off interfering substrates, the cell mass was resuspended in 5-times the volume of an oxygen-free buffer (50 mmol/l of potassium phosphate pH 6.8) and centrifuged off. Oxygen-free solutions were produced by degassing the solution and purging with gaseous nitrogen.
The operation (resuspending/centrifuging) was repeated 3 times.
The washed oxygen-free cell mass was transferred in the absence of oxygen into shake flasks comprising culture medium (10 g of moist cell mass per 100 ml of medium). For control batches, the sewage sludge was autoclaved and inactivated thereby. […]
As electron acceptor, in addition, 5 g/l of KNO3 were added. […] Samples of the culture medium were taken off at regular intervals and analyzed immediately. […]
Analysis: In experiments using DMSD as a substrate, the change in concentration of DMSD in the aqueous phase was determined by means of proton magnetic resonance spectroscopy (^1H-NMR). […] Samples (0.9 ml) from the culture batches were taken off for this directly (via the stopper) from the vessel, admixed with standard (TSP in D2O; TSP=3-(trimethylsilyl)propionic acid-D4 sodium salt) and analyzed in the spectrometer. The DMSD signal can be quantified exactly via the known standard signal).

[2] = anaerobically incubated batch comprising sewage sludge
[3] = control batch (inactivated sewage sludge)

Structure (SMILES)	decrease in the amount of D4 (Sewage sludge; [2]) [%]	decrease in the amount of D4 (Sewage sludge; [3]) [%]	decrease of the amount of DMSD [1, 2] [%]	decrease of the amount of DMSD [1, 3] [%]
C[Si]1(C)O[Si](C)(C)O[Si](C)(C)O[Si](C)(C)O1 [D4, Octamethylcyclosiloxane]	−16.3	−6.2	–	–
C[Si](C)(O)O [DMSD, Dimethylsilanediol]	–	–	−39	−9
